Experiment [1] is described as follows: Late stage counterscreen for inhibitors of Trypanosoma brucei methionyl tRNA synthetase (MetRS): Luminescence-based cell-based high throughput dose response assay to identify compounds that are cytotoxic to Jurkat human T lymphocyte cells. In kind it is functional. In general terms: The purpose of a counterscreen is to sort out artefacts and off-target activity.

Experiment [2] is described as follows: HepG2 cell cytotoxicity, dose response, cytotoxicity control, luminescence plate reader, powder samples, set 2 (AID 651860). The class given is functional, cell-based.
Experiment [3] can be described thus: cytotoxicity toward NIH3T3 fibroblasts, dose response, counter-screen, cell-based, ATP luminescence, mouse fibroblasts (AID 2010).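 Note: cells exposed to compound for about 90 hours before reading.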 The class given is functional.
In experiment [4] the target is Disintegrin and metalloproteinase domain-containing protein 17 (Homo sapiens, UniProt P78536). The experiment can be described thus: ADAM17 protease inhibitors, dose response, counter-screen for ADAM10 exosite inhibitor project, biochemical, quenched FRET substrate (AID 743253).
Sequence of Disintegrin and metalloproteinase domain-containing protein 17 (P78536 whole entry, the tested form may be a part): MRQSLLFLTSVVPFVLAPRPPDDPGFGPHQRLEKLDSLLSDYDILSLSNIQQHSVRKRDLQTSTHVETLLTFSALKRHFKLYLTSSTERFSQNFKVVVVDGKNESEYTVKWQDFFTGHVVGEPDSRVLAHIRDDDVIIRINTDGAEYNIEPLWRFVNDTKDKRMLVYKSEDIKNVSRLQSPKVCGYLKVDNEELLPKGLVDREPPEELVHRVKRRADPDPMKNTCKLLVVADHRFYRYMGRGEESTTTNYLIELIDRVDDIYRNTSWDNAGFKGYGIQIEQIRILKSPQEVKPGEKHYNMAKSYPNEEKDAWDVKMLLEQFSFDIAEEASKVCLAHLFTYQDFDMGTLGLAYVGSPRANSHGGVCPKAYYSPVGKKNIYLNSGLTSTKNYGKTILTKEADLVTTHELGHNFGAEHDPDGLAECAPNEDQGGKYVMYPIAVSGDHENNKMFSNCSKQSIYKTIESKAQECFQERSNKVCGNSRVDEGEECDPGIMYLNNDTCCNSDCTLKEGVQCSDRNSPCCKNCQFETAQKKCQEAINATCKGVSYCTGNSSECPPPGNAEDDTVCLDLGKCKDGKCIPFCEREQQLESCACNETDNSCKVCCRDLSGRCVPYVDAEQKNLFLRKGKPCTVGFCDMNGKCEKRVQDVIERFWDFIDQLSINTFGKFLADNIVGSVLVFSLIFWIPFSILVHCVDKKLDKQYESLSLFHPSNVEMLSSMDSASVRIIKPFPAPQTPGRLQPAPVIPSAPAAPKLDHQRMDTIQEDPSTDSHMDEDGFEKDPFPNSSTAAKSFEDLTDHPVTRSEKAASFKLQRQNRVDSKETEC
The nature of experiment [5]: inhibitors of intracellular T. cruzi replication, confirmation, NIH3T3 host cells, beta-gal luminescence (AID 2044).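 Note: intracellular parasites grown in NIH/3T3 mouse fibroblasts as host cells; luminescent beta-galactosidase reporter signal from transgenic T. cruzi replicating inside host cells; inhibitors lower the luminescence signal.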 The class given is functional, cell-based.
Experiment [6] concerns Streptococcus sp. 'group A'. Kind of experiment: growth inhibition of control SK(-) GAS strain, dose response, counter-screen for streptokinase expression inhibitor project, luminescence, kanamycin, BacTiterGlo, confirmation (AID 1900). The class given is functional, organism-based.
The next experiment has as its system Streptococcus. The experiment can be described thus: Group A Streptococcus viability loss, dose response, counter-screen for streptokinase expression inhibitor project, luminescence, BacTiterGlo (AID 1915).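 Note: potency for reduction of bacterial viability or growth.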 In kind it is functional, organism-based.
A further experiment has as its target T1, Streptokinase A (Streptococcus pyogenes serotype M1, UniProt P10520).
T1 sequence (P10520 whole entry): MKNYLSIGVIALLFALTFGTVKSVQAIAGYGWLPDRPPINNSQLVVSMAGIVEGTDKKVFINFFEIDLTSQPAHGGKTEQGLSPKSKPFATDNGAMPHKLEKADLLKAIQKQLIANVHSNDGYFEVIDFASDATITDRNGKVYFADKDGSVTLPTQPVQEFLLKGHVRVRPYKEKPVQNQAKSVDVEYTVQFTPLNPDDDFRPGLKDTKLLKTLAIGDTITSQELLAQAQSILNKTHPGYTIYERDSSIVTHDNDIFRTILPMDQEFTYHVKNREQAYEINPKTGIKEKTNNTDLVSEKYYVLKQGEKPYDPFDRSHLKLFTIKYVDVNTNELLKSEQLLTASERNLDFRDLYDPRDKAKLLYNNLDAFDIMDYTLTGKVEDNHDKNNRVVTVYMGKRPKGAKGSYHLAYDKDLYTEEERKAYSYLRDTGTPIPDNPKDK
The experiment can be described thus: S. pyogenes streptokinase expression inhibitors, potency, dose response, plasminogen activation absorbance, OD405 (AID 1914).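 Note: secreted streptokinase activity via plasminogen activation per viability signal from cell pellet.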 The class given is functional, Streptococcus pyogenes M1 GAS.

Experiment [7] in a line: HCT116 cell viability decrease, GSK3B pretreatment – CellTiter-Glo, IC50, dose response (AID 1117339). The class given is functional. Particulars: HCT-116. (Cellular ATP, detected with luciferase, serves as a proxy for viable cell number.)
The nature of experiment [8]: Concentration-dependent survival of SW480 colon cancer line, luminescence detection with CellTiter-Glo, half-maximal inhibitory concentration (AID 1117338). In kind it is functional.
Experiment [9] in a line: cytotoxicity toward HCT116 cells – cell-based, CellTiter-Glo luminescence, IC50, dose response (AID 1117332). In kind it is functional. The note with it: HCT-116.
A short description of experiment [10]: cytotoxicity toward HT-29 cells – cell-based, CellTiter-Glo luminescence, IC50, dose response (AID 1117330). The class given is functional.
Experiment [11] can be described thus: SNU-C1 cell viability reduction, dose response, CellTiter-Glo luminescence (AID 1117323). The class given is functional, cell-based.
The nature of experiment [12]: cytotoxicity toward Colo320 cells – cell-based, CellTiter-Glo luminescence, IC50, dose response (AID 1117334). Particulars: COLO 320. The class given is functional.
A short description of experiment [13]: RKO cell viability reduction, dose response, CellTiter-Glo luminescence (AID 1117322). The class given is functional.
Experiment [14] is described as follows: CellTiter-Glo luminescent dose response of DLD-1 viability loss (AID 1117352). In kind it is functional.
Another experiment in a line: cells. Particulars: INS-1E. The class given is functional, cell-based.
A short description of experiment [15]: Dose-response inhibition of insulin secretion in a rat insulinoma line at 5 mM glucose (AID 1117331). In kind it is functional, cell-based. Particulars: INS-1E.
The next experiment deals with Nonstructural protein 1 (Influenza A virus, UniProt Q194T2). The class given is functional, Influenza A virus (A/California/07/2009(H1N1)).
Sequence of Nonstructural protein 1 (Q194T2 whole entry): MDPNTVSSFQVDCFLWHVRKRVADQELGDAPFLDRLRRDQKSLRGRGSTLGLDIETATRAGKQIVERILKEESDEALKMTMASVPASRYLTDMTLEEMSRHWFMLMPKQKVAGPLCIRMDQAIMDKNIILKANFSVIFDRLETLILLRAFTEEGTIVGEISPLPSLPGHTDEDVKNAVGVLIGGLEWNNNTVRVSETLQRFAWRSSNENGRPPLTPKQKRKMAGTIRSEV
Experiment [16] addresses T2, Microphthalmia-associated transcription factor (Homo sapiens, UniProt O75030).
T2 sequence (O75030 whole entry): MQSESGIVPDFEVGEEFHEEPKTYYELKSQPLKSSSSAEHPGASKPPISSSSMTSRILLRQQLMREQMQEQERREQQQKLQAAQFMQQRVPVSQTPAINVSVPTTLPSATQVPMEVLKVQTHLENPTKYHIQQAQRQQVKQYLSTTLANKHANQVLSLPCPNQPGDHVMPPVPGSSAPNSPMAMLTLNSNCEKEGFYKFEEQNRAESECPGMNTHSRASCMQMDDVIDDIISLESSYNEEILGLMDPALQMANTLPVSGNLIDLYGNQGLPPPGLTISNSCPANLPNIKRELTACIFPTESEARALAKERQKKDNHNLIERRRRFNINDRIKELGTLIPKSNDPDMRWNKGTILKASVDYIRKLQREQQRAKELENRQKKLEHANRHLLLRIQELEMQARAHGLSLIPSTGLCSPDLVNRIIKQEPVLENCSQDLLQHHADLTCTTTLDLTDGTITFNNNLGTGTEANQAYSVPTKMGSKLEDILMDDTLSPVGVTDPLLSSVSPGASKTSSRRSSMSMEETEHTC
The experiment can be described thus: TRPM1 promoter luciferase signal decrease, dose response, MITF inhibitor project, cell-based, SK-MEL-5, cherry-picked, set 3 (AID 493073).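 Note: SK-MEL-5 melanoma cells with luciferase driven by the MITF target TRPM1 promoter.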 The class given is functional.

The nature of experiment [17]: A375 melanoma cell cytotoxicity, dose response, counter-screen for MITF inhibitor project, CellTiter-Glo luminescence, dry powder, set 7 (AID 624490). In kind it is functional, cell-based. The note with it: A-375.
Experiment [18] is described as follows: MITF Measured in Cell-Based System Using Plate Reader - 2084-01_Inhibitor_Dose_DryPowder_Activity_Set6. In kind it is functional.
Experiment [19] is described as follows: MITF Orthogonal Assay: SK-MEL-5 CTG Assay Measured in Cell-Based System Using Plate Reader - 2084-02_Inhibitor_Dose_DryPowder_Activity_Set5. The class given is functional.
The nature of experiment [20]: MALME3 melanoma cell viability reduction, dose response, orthogonal assay for MITF inhibitor project, CellTiter-Glo luminescence, dry powder, set 5 (AID 651584). Particulars: MALME-3. The class given is functional, cell-based.
A short description of experiment [21]: A375 melanoma cell cytotoxicity, dose response, counter-screen for MITF inhibitor project, CellTiter-Glo luminescence, dry powder, set 6 (AID 624488). The class given is functional, cell-based. The note with it: A-375.
The nature of experiment [22]: A375 melanoma cell viability loss, dose response, counter-screen for MITF inhibitor project, CellTiter-Glo luminescence, dry powder, set 4 (AID 624364).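 Note: A375 melanoma cells are MITF independent so this is a counter screen.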 In kind it is functional, cell-based. Particulars: A-375.
The nature of experiment [23]: SK-MEL-5 parental cell viability reduction, dose response, orthogonal assay for MITF inhibitor project, CellTiter-Glo luminescence, dry powder, set 8 (AID 651586). The class given is functional, cell-based.
Experiment [24] in a line: MITF Orthogonal Assay: MALME3 CTG Assay Measured in Cell-Based System Using Plate Reader - 2084-04_Inhibitor_Dose_DryPowder_Activity_Set6. In kind it is functional. The note with it: MALME-3.
The subject of another experiment is INS1. Kind of experiment: beta cell apoptosis inhibitors, cytokine rescue, dose response, luminescence, retest (AID 449756).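 Note: cell death triggered by IL-1 beta plus TNF-alpha plus IFN-gamma mixture; protective hits raise ATP signal compared with cytokine alone wells.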 In kind it is functional, cell-based. Particulars: Rattus norvegicus.
Experiment [25] is described as follows: A375 melanoma cell viability loss, dose response, counter-screen for MITF modulator project, CellTiter-Glo luminescence, dry powder, set 9 (AID 651591). The note with it: A-375. In kind it is functional, cell-based.
Experiment [26] can be described thus: SK-MEL-5 parental line viability, dose response, MITF inhibitor project, cell-based, CellTiter-Glo, dry powder, set 6 (AID 624429). The class given is functional.
Experiment [27] in a line: cytotoxicity in primary human melanocytes, dose response, cytotoxicity control, cell-based, plate reader, dry powder (AID 651920). The class given is functional.
Experiment [28] in a line: MITF Measured in Cell-Based System Using Plate Reader - 2084-01_Inhibitor_Dose_DryPowder_Activity_Set7. The class given is functional.
The nature of experiment [29]: TRPM1 promoter luciferase reporter signal decrease, dose response, MITF inhibitor project, cell-based, SK-MEL-5, dry powder, set 9 (AID 651588). The class given is functional. A general note: In a reporter assay the amount or activity of a reporter protein is the signal.

As usually defined, the IC50 is the concentration needed to halve the response being measured. Usually AC50 stands for the midpoint of the concentration-response curve, whichever way the signal moves. One may read the EC50 as the concentration needed to bring the measured effect to its halfway point.

Calls of active or inactive are those of the source.

`O=C(NCc1nc2ccccc2[nH]1)C1=C[C@H](c2csc3ccccc23)C[C@H](OCCCCO)O1`: in experiment [1], the IC50 was 60.3 µM (inactive).

As for `Cc1cc(C)c(S(=O)(=O)Nc2nc(C(C(=O)OC(C)C)C(=O)C(F)(F)F)nc3ccccc23)c(C)c1` (centres undefined), the AC50 in experiment [2] was > 52 µM (inactive).

`COc1ccc(C(Nc2cc(C)ccn2)c2ccc3ccc(C)nc3c2O)cc1` (centres undefined): the EC50 in experiment [3] was 24.7 µM (active); in experiment [5], 2.15 µM (active); in [6] it was 14.3 µM (active); with Streptococcus, 54.9 µM (active); on Streptokinase A it was > 150 µM (not active). For the same compound, the IC50 in experiment [4] is > 69.5 µM (inactive).

As to `Cc1nnc(NS(=O)(=O)c2ccc(N)cc2)s1` [SULFAMETHIZOLE], the IC50 in experiment [7], in experiment [8], in [9], in [10], in experiment [11] and in experiment [12] was > 20 µM (inactive) each time. In addition, the IC50 in experiment [13] and in experiment [14] was > 20 µM (inactive) throughout.

For the compound `Oc1ccccc1` [PHENOL], the IC50 (in “cells”; in experiment [15]) was > 33.3 µM (inactive) each time.

In the case of `COC1=C(Nc2ccccc2)C(=O)c2ccccc2C1=O`, at Nonstructural protein 1, the IC50 was 12 µM (active). Besides, the half-maximal activity concentration (AC50) is 4.53 µM (active) in experiment [16]; 41.5 µM (active) in experiment [17]; 5.17 µM (active) in [18]; 3.1 µM (active) in [19]; 12.5 µM (active) in [20]; 43.4 µM (active) in experiment [21]. Further, the AC50 in [22] is > 70 µM (inactive); in experiment [23], 6.45 µM (active); in experiment [24] it was 12.5 µM (active); in the experiment on INS1, 5.64 µM (active); in experiment [25] it was > 70 µM (inactive); in experiment [26] it was 3.54 µM (active). For the same compound, the AC50 is 41.9 µM (active) in experiment [27], 7.24 µM (active) in experiment [28] and 13.9 µM (active) in [29].

Values taken from ChEMBL document CHEMBL1201862, “PubChem BioAssay data set” (2004).
